Key:
Sarcoma-180 [1] = experiment: Antitumor activity expressed as T/C at an intravenous dose of 0.13 mg/kg in mice implanted subcutaneously with murine sarcoma 180 cells.; type: functional, Mus musculus
HeLa [2] = experiment: Concentration required to inhibit the growth of HeLa S3 cells after 1 hour.; type: functional, cell-based; conditions: Homo sapiens
HeLa [3] = experiment: Concentration required to inhibit the growth of HeLa S3 cells after 72 hours.; type: functional, cell-based; conditions: Homo sapiens
Sarcoma-180 [4] = experiment: Antitumor activity expressed as T/C at an intravenous dose of 8.0 mg/kg in mice implanted subcutaneously with murine sarcoma 180 cells.; type: functional, Mus musculus
Sarcoma-180 [5] = experiment: Antitumor activity expressed as T/C at an intravenous dose of 1.0 mg/kg in mice implanted subcutaneously with murine sarcoma 180 cells.; type: functional, Mus musculus

IC50 (HeLa [2]) [nM] | IC50 (HeLa [3]) [nM] | Compound | T/C (Sarcoma-180 [1]) | T/C (Sarcoma-180 [4]) | T/C (Sarcoma-180 [5])
 |  | COC(=O)c1c(C)[nH]c2c1[C@@]13C[C@@H]1CN(C(=O)c1cc4cc(OC)c(OC)c(OC)c4[nH]1)C3=CC2=O | 0.18 |  | 
36 | 6.6 | COC(=O)c1c(C)[nH]c2c1[C@@]13C[C@@H]1Cn1c(O)c4nc5c(OC)c(OC)c(OC)cc5c-4c(c13)C2=O |  |  | 
890 | 230 | COC(=O)c1c2c(n(C)c1C)C(=O)C=C1N(C(=O)c3cc4cc(OC)c(OC)c(OC)c4n3C)C[C@H]3C[C@]123 |  | 0.96 | 
1.4 | 0.069 | COC(=O)c1c2c(n(C)c1C)C(=O)C=C1N(C(=O)c3cc4cc(OC)c(OC)c(OC)c4[nH]3)C[C@H]3C[C@]123 |  |  | 0.22

— ChEMBL document CHEMBL1129161, “Studies on the active metabolite (DU-86) of KW-2189, a novel derivative of duocarmycin” (Bioorg Med Chem Lett, 1996)
